{
  "source": "patent US20120277199A1",
  "about": "“Modulation of Gel Temperature of Poloxamer-Containing Formulations” (Otonomy, Inc., priority 2009, published 2012)",
  "key": {"[1]": {"assay": "In vitro dissolution in snapwells, mean dissolution time (MDT)", "assay_type": "physicochemical", "description": "Dissolution was performed at 37° C. in snapwells (6.5 mm diameter polycarbonate membrane with a pore size of 0.4 μm). […] Samples were taken every hour (0.1 mL withdrawn and replaced with warm buffer).\nDissolution is performed at 37° C. in snapwells (6.5 mm diameter polycarbonate membrane with a pore size of 0.4 μm), 0.2 mL of a gel formulation described herein is placed into snapwell and left to harden, then 0.5 mL buffer is placed into reservoir and shaken using a Labline orbit shaker at 70 rpm. Samples are taken every hour (0.1 mL withdrawn and replace with warm buffer). […] Pluronic concentration is analyzed at 624 nm using the cobalt thiocyanate method.\nThe mean dissolution time (MDT) is the sum of different periods of time the drug molecules stay in the matrix before release, divided by the total number of molecules and is optionally calculated by:\nDissolution was performed at 37° C. in snapwells (6.5 mm diameter polycarbonate membrane with a pore size of 0.4 μm), 0.2 mL of formulation was placed into snapwell and left to harden, then 0.5 mL of 0.9% saline was placed into reservoir and shaken using a Labline orbit shaker at 70 rpm. Samples were taken every hour (0.1 mL withdrawn and replace with warm buffer). Samples analyzed for dexamethasone and ciprofloxacin concentration by UV at 245 and 270 nm, respectively using a Evolution 160 UV/Vis spectrophotometer (Thermo Scientific). Quantitation performed against an external calibration standard.\nDissolution was performed at 37° C. in snapwells (6.5 mm diameter polycarbonate membrane with a pore size of 0.4 μm), 0.2 mL of gel was placed into snapwell and left to harden, 0.5 mL of 0.9% saline was placed into reservoir and shaken using a Labline orbit shaker at 70 rpm. Samples were taken every hour (All the saline withdrawn and replace with warm 0.9% saline with an osmolality of 290 mOsm). Samples were analyzed for Ciprofloxacin by HPLC."}, "[2]": {"assay": "Perilymph pharmacokinetics after intratympanic injection in guinea pigs", "conditions": "guinea pig, in vivo", "procedure": "Guinea pigs were administered 50 μl via intratympanic delivery and PK in the perilymph was measured as described herein.\nFemale guinea pigs (Charles River) weighing 200-300 g, of approximately 6-8 weeks of age are used (N=4 per group). Prior to any procedure, animals are anesthetized using a combination of xylazine (10 mg/kg), ketamine (40 mg/kg) and acepromazine (0.75 mg/kg) for up to an hour via the intramuscular route. If needed, an intraoperative booster is administered intraperitoneally representing one-tenth of the original dose. Intratympanic injection—Each animal is positioned so that the head is tilted at an angle to favor injection towards the round window niche. Briefly, under visualization with an operating microscope, 50 μl of formulations comprising 0 to 50% active agent and varying concentrations of P407 are administered to the animals. […] During the procedure and until recovery, animals are placed on a temperature controlled (40° C.) heating pad until consciousness is regained at which time they are returned to the vivarium. Perilymph sampling procedure—The skin behind the ear of anesthetized guinea pigs is shaved and disinfected with povidone-iodine. An incision is then made behind the ear, and muscles are carefully retracted from over the bulla. […]\nDetermination of active agent concentrations is performed using high pressure liquid chromatography (HPLC) combined with mass spectrometry detection (MS). […] The samples are analyzed by reversed phase HPLC (1100 series, Agilent) using an Atlantis dC18 column maintained at 40° C. The mobile phase is nebulized using heating nitrogen in a Z-spray source/interface and the ionized compounds detected using MS/MS (Tandem quadrupole mass spectrometer, Quattro Ultima, Waters). Peak heights of an active agent are determined using MassLynx software (Waters). […]\nPharmacokinetic parameters are calculated using conventional noncompartmental pharmacokinetic methods. The apparent clearance (CL app) is calculated as the ratio between the administered intratympanic dose and the exposure (AUC). […]"}, "physchem": {"assay": "physchem", "conditions": "aqueous with cosolvent or surfactant or cyclodextrin, thermodynamic from solid", "procedure": "In addition, modifying the solubility of the active agent can also have an effect on the properties of the thermosensitive gel.\nA formulation comprising 0.5% w/w SP600125 in 16% Poloxamer 407 was made by dispersing 5.3 mg of SP600125 (LC Labs) in 994.7 mg of a 16% P407 in 50 mM Tris buffer."}, "[3]": {"conditions": "cited from earlier work"}, "[4]": {"conditions": "systemically administered (oral or intravenously); cited from earlier work"}, "[5]": {"assay": "Stability to autoclaving (impurity profile, assay, pH, osmolality, appearance)", "assay_type": "physicochemical", "conditions": "autoclaving at 250° F. for 30 minutes in P407", "description": "Cold 16% P407 in 50 mM TRIS buffers-saline (pH 7.4 and osmolality of 280 mOsM) was placed in a open container, then ciprofloxacin free base or ciprofloxacin free base hydrate (3.5 moles) was sprinkled in while mixing. Ciprofloxacin suspension was mixed for not less than 10 minutes, then micronized dexamethasone was added slowly to the mixture while mixing. The homogenous suspension was then transferred to 3 mL vials and filled at different volumens (v1=4 g, v2, 3 g and v3 2 g). The glass vial were sealed with West stoppers (fluorotec coated) and Aluminum seals, followed by autoclaving at 250° F. for 30 minutes.\nWeigh 58.8 g of the above buffer, chill down, then sprinkle while mixing 11.291 g of poloxamer 407 NF (BASF lot WPNF580C), mix until fully dissolved. Weigh 64.8 g of a the 16% P407 (above solution) into a 100 mL glass bottle containing a 35 mm stir bar then sprinkle 2.2915 g of ciprofloxacin hydrate (Neuland lot CHI071000). Mix for not less than 2 hours at a setting of 11 (IKA stir plate) minutes while cooling then fill 31 two mL vials with approximately 2 g of suspension, stopper them with 13 mm West stoppers and seal them with Al seal, autoclave for 30 minutes @ 250° C."}},
  "data": [
    {"compound": "C[C@@H]1C[C@H]2[C@@H]3CCC4=CC(=O)C=C[C@]4(C)[C@@]3(F)[C@@H](O)C[C@]2(C)[C@@]1(O)C(=O)COP(=O)(O)O", "note": "[DSP, dexamethasone sodium phosphate]", "values": [
      {"measurement": "MDT", "setting": "[1]; 17% Poloxamer 407 formulation", "result": "about 3 h"},
      {"measurement": "MDT", "setting": "[1]; DSP aqueous solution, micronized DEX suspension in water (no poloxamer)", "result": 0.3, "unit": "h"}
    ]},
    {"compound": "C[C@H]1C[C@@H]2[C@H]([C@@H](O)C[C@@]3(C)[C@H]2CC[C@]3(O)C(=O)COC(=O)CCC(=O)[O-])[C@@]2(C)C=CC(=O)C=C12.[Na+]", "note": "[MPS]", "values": [
      {"measurement": "MDT", "setting": "[1]; 17% Poloxamer 407 formulation", "result": "about 3 h"},
      {"measurement": "peak methylprednisolone levels in the perilymph", "setting": "[2]", "result": 6.5, "unit": "µg/mL"}
    ]},
    {"compound": "C[C@H]1C[C@@H]2[C@H]([C@@H](O)C[C@@]3(C)[C@H]2CC[C@]3(O)C(=O)CO)[C@@]2(C)C=CC(=O)C=C12", "note": "[MP]", "values": [
      {"measurement": "decrease of perilymph levels after peak", "setting": "[2]", "result": "decreased slowly over 10 days"},
      {"measurement": "peak methylprednisolone levels in the perilymph", "setting": "[2]", "result": 19.2, "unit": "µg/mL"}
    ]},
    {"compound": "O=C1c2ccccc2-c2n[nH]c3cccc1c23", "note": "[SP600125, anthra[1,9-cd]pyrazol-6(2H)-one]", "values": [
      {"measurement": "solubility", "setting": "physchem", "result": "~190", "unit": "µg/mL"},
      {"measurement": "reported water solubility", "setting": "[3]", "result": 11, "unit": "µg/mL"},
      {"measurement": "LogD (7.4)", "setting": "[3]; pH 7.4", "result": 3.2}
    ]},
    {"compound": "O=P(O)(O)C(O)(Cn1ccnc1)P(=O)(O)O", "note": "[Zoledronate]", "values": [
      {"measurement": "in vitro mean dissolution time (MDT)", "setting": "[1]; 16% P407 formulation, FIG. 6", "result": 2, "unit": "h"},
      {"measurement": "amount reaching the perilymph in the inner ear and/or otic bone structure", "setting": "[4]", "result": "about 0.1 ng/day"}
    ]},
    {"compound": "CN(C)CCC=C1c2ccccc2CCc2ccccc21", "note": "[amitriptyline]", "values": [
      {"measurement": "water solubility", "setting": "[3]", "result": "greater than 100 mg/mL"}
    ]},
    {"compound": "O=C(O)c1cn(C2CC2)c2cc(N3CCNCC3)c(F)cc2c1=O", "note": "[ciprofloxacin free base hydrate, ciprofloxacin hydrate]", "values": [
      {"measurement": "change observed after autoclaving", "setting": "[5]; hydrate", "result": "minimal growth or recrystallization"}
    ]},
    {"compound": "O=C(O)c1cn(C2CC2)c2cc(N3CCNCC3)c(F)cc2c1=O", "note": "[ciprofloxacin free base, ciprofloxacin]", "values": [
      {"measurement": "change observed after autoclaving", "setting": "[5]", "result": "appreciable particle size increase"}
    ]},
    {"compound": "Cc1cccc(CN2CCN(C(c3ccccc3)c3ccc(Cl)cc3)CC2)c1", "note": "(stereo not shown) [meclizine]", "values": [
      {"measurement": "solubility in water", "setting": "[3]", "result": "insoluble in water"}
    ]},
    {"compound": "O=P(O)(O)C(O)(Cc1cccnc1)P(=O)(O)O", "note": "[rosidronate]", "values": [
      {"measurement": "amount reaching the perilymph in the inner ear and/or otic bone structure", "setting": "[4]", "result": "about 0.6 ng/day"}
    ]}
  ]
}
